Assay results reported in patent US9737075B2, “Synergistic benzoxaborole-containing anti-fungicidal composition” (The Penn State Research Foundation, priority 2015, dated 2017).
≈ marks a conversion by molar mass, not a printed value. Like-named read-outs stand apart in the source and are kept apart here.

Columns and labels:
Assay type in all cases: cell-based
[1] = test system: Mycosphaerella zeae-maydis; experiment: Broth microdilution MIC of individual antifungals; conditions: Didymella maydis, individual antifungal, 25% PDB, about 25° C., 72 hours, range over N independent triplicate studies
Alternaria solani = experiment: Broth microdilution MIC of individual antifungals; conditions: individual antifungal, 25% PDB, about 25° C., 72 hours, range over N independent triplicate studies, read-out: Independent MIC
Aureobasidium pullulans = experiment: Broth microdilution MIC of individual antifungals; conditions: individual antifungal, 25% PDB, about 25° C., 72 hours, range over N independent triplicate studies, read-out: Independent MIC
Aspergillus flavus = experiment: Broth microdilution MIC of individual antifungals; conditions: read-out: Independent MIC
Aspergillus fumigatus = experiment: Broth microdilution MIC of individual antifungals; conditions: individual antifungal, 25% PDB, about 25° C., 72 hours, range over N independent triplicate studies, read-out: Independent MIC
Aspergillus niger = experiment: Broth microdilution MIC of individual antifungals; conditions: read-out: Independent MIC
Sclerotinia homoeocarpa = experiment: Broth microdilution MIC of individual antifungals; conditions: Clarireedia homoeocarpa; Sclerotinia homoeocarpa; individual antifungal, 25% PDB, about 25° C., 72 hours; range over N independent triplicate studies; read-out: Independent MIC
Botrytis cinerea 10-1728 = experiment: Broth microdilution MIC of individual antifungals; conditions: 101728; Botrytis cinerea 10-1728; individual antifungal, 25% PDB, about 25° C., 72 hours; range over N independent triplicate studies; read-out: Independent MIC
Botrytis cinerea B17 = experiment: Broth microdilution MIC of individual antifungals; conditions: Botrytis cinerea B17; individual antifungal, 25% PDB, about 25° C., 72 hours; range over N independent triplicate studies; read-out: Independent MIC
Fusarium verticillioides = experiment: Broth microdilution MIC of individual antifungals; conditions: individual antifungal, 25% PDB, about 25° C., 72 hours, range over N independent triplicate studies, read-out: Independent MIC
[2] = test system: Fusarium solani f. sp. pisi (MP VI); experiment: Broth microdilution MIC of individual antifungals; conditions: read-out: Independent MIC
Fusarium oxysporum ST33 = experiment: Broth microdilution MIC of individual antifungals; conditions: individual antifungal, 25% PDB, about 25° C., 72 hours, range over N independent triplicate studies
[3] = test system: Fusarium oxysporum f. sp. lycopersici; experiment: Broth microdilution MIC of individual antifungals; conditions: individual antifungal, 25% PDB, about 25° C., 72 hours, range over N independent triplicate studies
Stachybotrys chartarum = experiment: Broth microdilution MIC of individual antifungals; conditions: individual antifungal, 25% PDB, about 25° C., 72 hours, range over N independent triplicate studies, read-out: Independent MIC
Rhizopus sp. = experiment: Broth microdilution MIC of individual antifungals; conditions: read-out: Independent MIC
Mucor sp. = experiment: Broth microdilution MIC of individual antifungals; conditions: individual antifungal, 25% PDB, about 25° C., 72 hours, range over N independent triplicate studies
[4] = test system: two dozen different fungal organisms; experiment: Broth microdilution MIC, summary over the organisms examined
Method: All antifungal susceptibility assays were conducted in triplicate and N independent times. Thus, the inhibition studies were conducted a total of 3·N times. […] Thus, each synergy assay (combination of two antifungals) was conducted in conjunction with independent MIC determination. FICI values were calculated by comparing the inhibition activity of the combination (benzoxaborole+another antifungal) against the efficacy of the individual antifungal within the same experiment (using the same experimental conditions).
The studies were performed in flat bottom, 96-well microtiter plates (Greiner Bio-One).
Plates sealed with clear polyester film (VWR) were incubated at a temperature of about 25° C. The progress of fungal growth was monitored at 48 hours, 72 hours, 7 days, and 15 days. […] In order to establish appropriate comparison between the different fungi, the FICI (thus, the MICs used) determination was done at 72 hours for all cases discussed herein.
The MICs of the individual antifungals (MICBoron and MICA) and in combination (MICBA) were determined after 72 hours of incubation. […] MICA is defined as the MIC value of every other individual non-benzoxaborole-based antifungal. MICBA is defined as the MIC value when the benzoxaborole antifungal is combined with another non-benzoxaborole antifungal. […] The combination studies were performed in triplicate in flat bottom 96-well microtiter plates with a final media volume of 0.2 mL/well.

Candida albicans = experiment: Broth microdilution MIC of individual antifungals; conditions: read-out: Independent MIC
Fusarium graminearum = experiment: microbe, parasite or virus in culture; conditions: Fusarium graminearum, 72 h, read-out: Independent MIC
Pythium aphanodermatum = experiment: Broth microdilution MIC of individual antifungals; conditions: individual antifungal, 25% PDB, about 25° C., 72 hours, range over N independent triplicate studies
Magnaporthe grisea = experiment: microbe, parasite or virus in culture; conditions: Pyricularia oryzae, 72 h, read-out: Independent MIC
Phytophthora pini = experiment: Broth microdilution MIC of individual antifungals; conditions: individual antifungal, 25% PDB, about 25° C., 72 hours, range over N independent triplicate studies
Rhizoctonia solani = experiment: Broth microdilution MIC of individual antifungals; conditions: read-out: Independent MIC
Penicillium chrysogenum = experiment: Broth microdilution MIC of individual antifungals; conditions: read-out: Independent MIC
[5] = test system: Colletotrichum orbiculare; experiment: Broth microdilution MIC of individual antifungals; conditions: read-out: Independent MIC
[6] = individual antifungal, 25% PDB, about 25° C., 72 hours, range over N independent triplicate studies
[7] = Fusarium solani f. sp. pisi (MP VI), individual antifungal, 25% PDB, about 25° C., 72 hours, range over N independent triplicate studies
[8] = Rhizopus, 72 h, Rhizopus sp., individual antifungal, 25% PDB, about 25° C., 72 hours, range over N independent triplicate studies
[9] = by itself, against the organisms examined (Table 1), regularly
[10] = against many species tested here

SMILES	MIC [1]	MIC (Alternaria solani)	MIC (Aureobasidium pullulans)	MIC (Aspergillus flavus; [6])	MIC (Aspergillus fumigatus)	MIC (Aspergillus niger; [6])	MIC (Sclerotinia homoeocarpa)	MIC (Botrytis cinerea 10-1728)	MIC (Botrytis cinerea B17)	MIC (Fusarium verticillioides)	MIC [2, 7]	MIC (Fusarium oxysporum ST33)	MIC [3]	MIC (Stachybotrys chartarum)	MIC (Rhizopus sp.; [8])	MIC (Mucor sp.)	MIC (Fusarium graminearum)	MIC (Magnaporthe grisea)	MIC (Phytophthora pini)	MIC [5, 6]	also measured
Cc1ccc2c(c1)COB2O [B1, 5-Methyl-1,3-dihydro-2,1-benzoxaborol-1-ol]	16 µg/mL	1 µg/mL	1 µg/mL	2 µg/mL	0.25 µg/mL	2 µg/mL	1 µg/mL	2 µg/mL	2 µg/mL	0.5 µg/mL	2 µg/mL	1 µg/mL	1 µg/mL	0.5 µg/mL	16 µg/mL	1 µg/mL					MIC [4, 9]: ≤ 4 µg/mL
OB1OCc2cc(Cl)ccc21 [B18, 5-chloro-1,3-dihydro-2,1-benzoxaborol-1-ol]	4 to 8 µg/mL	0.5 µg/mL	0.125 µg/mL	0.5 to 1 µg/mL	0.125 to 0.25 µg/mL	0.5 to 2 µg/mL	1 to 4 µg/mL	0.5 to 2 µg/mL	0.5 µg/mL	0.25 to 0.5 µg/mL	0.5 µg/mL	0.5 µg/mL	0.25 µg/mL	0.25 to 1 µg/mL	0.5 to 2 µg/mL	0.5 to 1 µg/mL	1 µg/mL (≈ 5.94 µM)	0.39 to 1.56 µg/mL (≈ 2.32 to 9.26 µM)	0.125 µg/mL	0.78 µg/mL	MIC (Candida albicans; [6]): 0.5 to 1 µg/mL; MIC (Pythium aphanodermatum): 0.25 to 2 µg/mL; MIC (Rhizoctonia solani; [6]): 1.56 to 8 µg/mL; MIC (Penicillium chrysogenum; [6]): 0.19 to 0.38 µg/mL; MIC [4, 9]: ≤ 4 µg/mL
OB1OCc2cc(F)ccc21 [B90, 5-Fluoro-1,3-dihydro-2,1-benzoxaborol-1-ol]	1 to 8 µg/mL	0.25 to 0.5 µg/mL	0.25 to 0.5 µg/mL	0.5 to 1 µg/mL	0.063 to 0.125 µg/mL	0.25 to 1 µg/mL	0.25 to 1 µg/mL	0.25 to 0.5 µg/mL	0.5 to 2 µg/mL	0.25 to 0.4 µg/mL	0.5 to 1 µg/mL	0.25 to 0.5 µg/mL	0.25 to 0.5 µg/mL	0.25 to 0.5 µg/mL	1 to 2 µg/mL	0.25 µg/mL	0.5 to 2 µg/mL (≈ 3.29 to 13.2 µM)	1.25 to 2 µg/mL (≈ 8.23 to 13.2 µM)		0.78 to 1.56 µg/mL	MIC (Candida albicans; [6]): 0.5 µg/mL; MIC (Pythium aphanodermatum): 2 to 4 µg/mL; MIC (Rhizoctonia solani; [6]): 1.56 to 8 µg/mL; MIC (Penicillium chrysogenum; [6]): 0.19 to 0.39 µg/mL; MIC [4, 9]: ≤ 4 µg/mL
O=C1C2CC=CCC2C(=O)N1SC(Cl)(Cl)Cl (stereo not drawn) [Captan, captan]	1 to 1.56 µg/mL	1.5 to 3.12 µg/mL	0.375 to 0.78 µg/mL	12.5 to 25 µg/mL	6.25 to 12.5 µg/mL	12.5 to 16 µg/mL	2 to 4 µg/mL	0.94 to 1.56 µg/mL	1.88 to 4 µg/mL	1 to 2 µg/mL	3 to 3.12 µg/mL	1 to 2 µg/mL	1.56 to 4 µg/mL	0.39 to 0.5 µg/mL	12.5 to 40 µg/mL	3.12 to 12.5 µg/mL	0.78 to 0.8 µg/mL (≈ 2.59 to 2.66 µM)	0.19 to 0.2 µg/mL (≈ 0.632 to 0.665 µM)	0.39 µg/mL	0.39 to 0.78 µg/mL	MIC (Pythium aphanodermatum): 28 µg/mL; MIC (Penicillium chrysogenum; [6]): 0.75 to 0.78 µg/mL; MIC [4, 10]: > 25 µg/mL
N#Cc1c(Cl)c(Cl)c(Cl)c(C#N)c1Cl [Chlorothalonil, chlorothalonil]	0.78 to 1 µg/mL	1 to 1.56 µg/mL		0.1 to 0.2 µg/mL	0.1 to 0.2 µg/mL	0.39 to 1 µg/mL	0.39 to 0.78 µg/mL	0.2 to 0.5 µg/mL		0.75 to 0.78 µg/mL	12.5 to 25 µg/mL				0.78 µg/mL	0.78 to 1 µg/mL	0.78 to 1.56 µg/mL (≈ 2.93 to 5.87 µM)			0.39 µg/mL	MIC (Candida albicans; [6]): 0.78 µg/mL; MIC (Rhizoctonia solani; [6]): 1.56 µg/mL; MIC (Penicillium chrysogenum; [6]): 0.1 µg/mL; MIC [4, 10]: > 25 µg/mL
CNC(=S)S [Metam Sodium, Metam sodium]	6 to 6.25 µg/mL	12.5 to 15 µg/mL			25 µg/mL		6.25 µg/mL	50 to 200 µg/mL		25 µg/mL						50 µg/mL	12.5 to 25 µg/mL		50 µg/mL		MIC (Aspergillus flavus; 72 h): 25 µg/mL; MIC (Aspergillus niger; 72 h): 50 µg/mL; MIC (Candida albicans; 72 h): 25 µg/mL; MIC ([2]; Fusarium solani, 72 h): 25 to 50 µg/mL; MIC (Rhizopus sp.; Rhizopus, 72 h): 100 µg/mL; MIC (Rhizoctonia solani; [6]): 25 to 50 µg/mL; MIC (Penicillium chrysogenum; 72 h): 50 µg/mL; MIC ([5]; 72 h): 12.5 to 25 µg/mL; MIC [4, 10]: > 25 µg/mL
S=C(S)NCCNC(=S)S [Zineb, zineb]	1.56 to 2 µg/mL	6.25 to 12.5 µg/mL			0.78 to 1.56 µg/mL		6.25 to 12.5 µg/mL	3 to 3.12 µg/mL		3.12 to 6.25 µg/mL	6.25 to 12.5 µg/mL						1.56 µg/mL (≈ 7.34 µM)	0.78 to 1.56 µg/mL (≈ 3.67 to 7.34 µM)	25 µg/mL	3.13 to 6.25 µg/mL	MIC (Aspergillus flavus; 72 h): 1 to 1.56 µg/mL; MIC (Candida albicans; 72 h): 3.12 µg/mL; MIC (Rhizopus sp.; Rhizopus sp., individual antifungal, 25% PDB, about 25° C., 72 hours, range over N independent triplicate studies): 12.5 µg/mL; MIC (Rhizoctonia solani; 72 h): 3.12 µg/mL; MIC (Penicillium chrysogenum; 72 h): 1.56 to 6.25 µg/mL; MIC [4, 10]: > 25 µg/mL
